Results published in US11852633B2 (priority 2017, dated 2023).

Details: K2CO3 5 mM, CH3CN:water (4:1), 1 hour

With `O=[N+]([O-])c1ccc(S(=O)(=O)Oc2ccccc2)c([N+](=O)[O-])c1` [probe 1, phenyl 2,4-dinitrobenzenesulfonate] the “CD response with other L-amino acids (phenylalanine, alanine, serine, tyrosine) versus L-Cys” value (probe 2.50 mM, amino acid 1.25 mM) was “remained CD silent with the exception of the cysteine solution” and the “CD response with biothiols L-homocysteine and L-glutathione” value (probe 2.5 mM, biothiol 1.25 mM) was “no induction of a CD signal”.
